In patent publication US20100267561A1, “HERBICIDAL PYRIDAZINONE DERIVATIVES” (priority 2007, published 2010):

Assays:
Format in all cases: in vivo
[1] = system: barnyardgrass (Echinochloa crus-galli); experiment: Test A pre-/postemergence plant response
Procedure, shortened: (§1)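 Greenhouse pot test: loam–sand soil; pre- and postemergence sprays applied same day; post plants 2–10 cm, 1–2 leaves. Readout ~10 d, visual % injury vs untreated (0 = none, 100 = complete control).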

[2] = system: large crabgrass (Digitaria sanguinalis); experiment: Test A pre-/postemergence plant response
Procedure, shortened: as §1

[3] = system: morningglory (Ipomoea coccinea); experiment: Test A pre-/postemergence plant response
Procedure, shortened: as §1

[4] = system: pigweed (Amaranthus retroflexus); experiment: Test A pre-/postemergence plant response
Procedure, shortened: as §1

[5] = system: velvetleaf (Abutilon theophrasti); experiment: Test A pre-/postemergence plant response
Procedure, shortened: as §1

[6] = system: wheat (Triticum aestivum); experiment: Test A pre-/postemergence plant response
Procedure, shortened: as §1

[7] = system: canarygrass (Phalaris minor); experiment: Test B postemergence plant response; details: for Plant response rating, Canarygrass: Postemergence
Procedure, shortened: (§2)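 Visual injury ratings on a 0–100 scale, where 100 means complete control, were made 13 to 15 days after postemergence treatment of greenhouse-grown plants at the 1- to 4-leaf stage.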

[8] = system: chickweed (Stellaria media); experiment: Test B postemergence plant response; details: for Plant response rating, Chickweed: Postemergence; for Chickweed plant response rating: postemergence, 0-100 scale
Procedure, shortened: as §2

[9] = system: windgrass (Apera spica-venti); experiment: Test B postemergence plant response; details: for Plant response rating, Windgrass: Postemergence; for Windgrass plant response rating: postemergence, 0-100 scale
Procedure, shortened: as §2

[10] = system: winter barley (Hordeum vulgare); experiment: Test B postemergence plant response; details: for Plant response rating, Barley: Postemergence; for Barley plant response rating: postemergence
Procedure, shortened: as §2

[11] = system: barnyardgrass (Echinochloa crus-galli); experiment: Test B flooded paddy test plant response
Procedure, shortened: (§3)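 Compounds were added directly to paddy water over 2-leaf-stage plants in pots flooded 3 cm above soil, water depth maintained. Visual injury scored against controls after 13 to 15 days in greenhouse, 0 (none) to 100 (complete control); dash indicates no result.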

[12] = system: ducksalad (Heteranthera limosa); experiment: Test B flooded paddy test plant response
Procedure, shortened: as §3

rice (Oryza sativa) = experiment: Test B flooded paddy test plant response
Procedure, shortened: as §3

[13] = system: umbrella sedge (Cyperus difformis); experiment: Test B flooded paddy test plant response
Procedure, shortened: as §3

[14] = Postemergence, 125 g ai/ha, 0 to 100 scale, 0 no effect, 100 complete control
[15] = Postemergence, 500 g ai/ha, 0 to 100 scale, 0 no effect, 100 complete control
[16] = Preemergence, 125 g ai/ha, 0 to 100 scale (0 no effect, 100 complete control)
[17] = Preemergence, 500 g ai/ha, 0 to 100 scale (0 no effect, 100 complete control)
[18] = 31 g ai/ha, scale 0 to 100, 0 no effect, 100 complete control
[19] = Flood (flooded paddy test), 62 g ai/ha, scale 0 to 100, 0 no effect, 100 complete control
[20] = Flood (flooded paddy test), 125 g ai/ha, scale 0 to 100, 0 no effect, 100 complete control
[21] = Flood (flooded paddy test), 250 g ai/ha, scale 0 to 100, 0 no effect, 100 complete control
[22] = Flood, 31 g ai/ha, scale 0 to 100
[23] = Postemergence, 31 g ai/ha, 0 to 100 scale, 0 no effect, 100 complete control
[24] = Preemergence, 31 g ai/ha, 0 to 100 scale, 0 is no effect, 100 is complete control
[25] = 62 g ai/ha, scale 0 to 100, 0 no effect, 100 complete control
[26] = Flood, 62 g ai/ha, scale 0 to 100

5-[3-(4-chlorophenyl)-5-methyl-1H-pyrazol-1-yl]-1,6-dihydro-1-methyl-6-oxo-4-pyridazinyl-1-methylethyl carbonate [Compound 7]
Plant response rating, Barnyardgrass [1, 14]: 80
Plant response rating, Barnyardgrass [1, 15]: 100
Plant response rating, Barnyardgrass [1, 16]: 100
Plant response rating, Barnyardgrass [1, 17]: 100
Plant response rating, Crabgrass, Large [2, 14]: 80
Plant response rating, Crabgrass, Large [2, 15]: 90
Plant response rating, Crabgrass, Large [2, 16]: 100
Plant response rating, Crabgrass, Large [2, 17]: 100
Plant response rating, Morningglory [3, 14]: 0
Plant response rating, Morningglory [3, 15]: 20
Plant response rating, Morningglory [3, 16]: 20
Plant response rating, Morningglory [3, 17]: 20
Plant response rating, Pigweed [4, 14]: 0
Plant response rating, Pigweed [4, 15]: 0
Plant response rating, Pigweed [4, 16]: 0
Plant response rating, Pigweed [4, 17]: 0
Plant response rating, Velvetleaf [5, 14]: 20
Plant response rating, Velvetleaf [5, 15]: 40
Plant response rating, Velvetleaf [5, 16]: 0
Plant response rating, Velvetleaf [5, 17]: 30
Plant response rating, Wheat [6, 14]: 40
Plant response rating, Wheat [6, 15]: 60
Plant response rating, Wheat [6, 16]: 60
Plant response rating, Wheat [6, 17]: 80
Plant response rating, Canarygrass [7, 18]: 90
Plant response rating, Canarygrass ([7]; 125 g ai/ha, scale 0 to 100): 90
Plant response rating, Canarygrass ([7]; 250 g ai/ha, scale 0 to 100): 90
Plant response rating, Chickweed [8, 18]: 0
Plant response rating, Chickweed ([8]; 62 g ai/ha, scale 0 to 100): 0
Plant response rating, Chickweed ([8]; 125 g ai/ha, scale 0 to 100): 0
Plant response rating, Chickweed ([8]; 250 g ai/ha, scale 0 to 100): 0
Plant response rating, Windgrass [9, 18]: 80
Plant response rating, Windgrass ([9]; 62 g ai/ha, scale 0 to 100): 85
Plant response rating, Windgrass ([9]; 125 g ai/ha, scale 0 to 100): 100
Plant response rating, Windgrass ([9]; 250 g ai/ha, scale 0 to 100): 100
Plant response rating, Barley ([10]; 62 g ai/ha, scale 0 to 100): 0
Plant response rating, Barley ([10]; 125 g ai/ha, scale 0 to 100): 0
Plant response rating, Barley ([10]; 250 g ai/ha, scale 0 to 100): 0
Plant response rating, Barnyardgrass [11, 19]: 45
Plant response rating, Barnyardgrass [11, 20]: 65
Plant response rating, Barnyardgrass [11, 21]: 85
Plant response rating, Barnyardgrass [11, 22]: 20
Plant response rating, Ducksalad [12, 19]: 0
Plant response rating, Ducksalad [12, 20]: 20
Plant response rating, Ducksalad [12, 21]: 40
Plant response rating, Ducksalad [12, 22]: 0
Plant response rating, Rice (rice (Oryza sativa); [19]): 30
Plant response rating, Rice (rice (Oryza sativa); [20]): 45
Plant response rating, Rice (rice (Oryza sativa); [21]): 65
Plant response rating, Rice (rice (Oryza sativa); [22]): 20
Plant response rating, Sedge, Umbrella [13, 19]: 80
Plant response rating, Sedge, Umbrella [13, 20]: 80
Plant response rating, Sedge, Umbrella [13, 21]: 80
Plant response rating, Sedge, Umbrella [13, 22]: 70

Cc1cc(-c2ccc(Br)cc2)nn1-c1c(OC(=O)C2CC2)cnn(C)c1=O [Compound 5]
Plant response rating, Barnyardgrass [1, 14]: 100
Plant response rating, Barnyardgrass [1, 15]: 100
Plant response rating, Barnyardgrass [1, 16]: 90
Plant response rating, Barnyardgrass [1, 17]: 100
Plant response rating, Crabgrass, Large [2, 14]: 100
Plant response rating, Crabgrass, Large [2, 15]: 100
Plant response rating, Crabgrass, Large [2, 16]: 100
Plant response rating, Crabgrass, Large [2, 17]: 100
Plant response rating, Morningglory [3, 14]: 0
Plant response rating, Morningglory [3, 15]: 0
Plant response rating, Morningglory [3, 16]: 0
Plant response rating, Morningglory [3, 17]: 0
Plant response rating, Pigweed [4, 14]: 0
Plant response rating, Pigweed [4, 15]: 0
Plant response rating, Pigweed [4, 16]: 0
Plant response rating, Pigweed [4, 17]: 0
Plant response rating, Velvetleaf [5, 14]: 20
Plant response rating, Velvetleaf [5, 15]: 50
Plant response rating, Velvetleaf [5, 16]: 0
Plant response rating, Velvetleaf [5, 17]: 20
Plant response rating, Wheat [6, 14]: 60
Plant response rating, Wheat [6, 15]: 70
Plant response rating, Wheat [6, 16]: 90
Plant response rating, Wheat [6, 17]: 100
Plant response rating, Canarygrass [7, 18]: 80
Plant response rating, Canarygrass ([7]; 62 g ai/ha, scale 0 to 100): 100
Plant response rating, Canarygrass ([7]; 125 g ai/ha, scale 0 to 100): 100
Plant response rating, Canarygrass ([7]; 250 g ai/ha, scale 0 to 100): 100
Plant response rating, Chickweed [8, 18]: 0
Plant response rating, Chickweed ([8]; 62 g ai/ha, scale 0 to 100): 0
Plant response rating, Chickweed ([8]; 125 g ai/ha, scale 0 to 100): 0
Plant response rating, Chickweed ([8]; 250 g ai/ha, scale 0 to 100): 0
Plant response rating, Windgrass [9, 18]: 95
Plant response rating, Windgrass ([9]; 62 g ai/ha, scale 0 to 100): 100
Plant response rating, Windgrass ([9]; 125 g ai/ha, scale 0 to 100): 100
Plant response rating, Windgrass ([9]; 250 g ai/ha, scale 0 to 100): 100
Plant response rating, Barley [10, 18]: 30
Plant response rating, Barley ([10]; 62 g ai/ha, scale 0 to 100): 90
Plant response rating, Barley ([10]; 125 g ai/ha, scale 0 to 100): 95
Plant response rating, Barley ([10]; 250 g ai/ha, scale 0 to 100): 95
Plant response rating, Barnyardgrass [11, 19]: 50
Plant response rating, Barnyardgrass [11, 20]: 70
Plant response rating, Barnyardgrass [11, 21]: 90
Plant response rating, Barnyardgrass [11, 22]: 20
Plant response rating, Ducksalad [12, 19]: 40
Plant response rating, Ducksalad [12, 20]: 50
Plant response rating, Ducksalad [12, 21]: 65
Plant response rating, Ducksalad [12, 22]: 30
Plant response rating, Rice (rice (Oryza sativa); [19]): 60
Plant response rating, Rice (rice (Oryza sativa); [20]): 75
Plant response rating, Rice (rice (Oryza sativa); [21]): 80
Plant response rating, Rice (rice (Oryza sativa); [22]): 15
Plant response rating, Sedge, Umbrella [13, 19]: 70
Plant response rating, Sedge, Umbrella [13, 20]: 80
Plant response rating, Sedge, Umbrella [13, 21]: 80
Plant response rating, Sedge, Umbrella [13, 22]: 70

CCc1c(C)c(-c2ccc(Br)cc2)nn1-c1c(O)cnn(C)c1=O [Compound 83]
Plant response rating, Barnyardgrass [1, 23]: 100
Plant response rating, Barnyardgrass [1, 14]: 100
Plant response rating, Barnyardgrass [1, 24]: 20
Plant response rating, Barnyardgrass [1, 16]: 100
Plant response rating, Crabgrass, Large [2, 23]: 60
Plant response rating, Crabgrass, Large [2, 14]: 100
Plant response rating, Crabgrass, Large [2, 24]: 0
Plant response rating, Crabgrass, Large [2, 16]: 70
Plant response rating, Pigweed [4, 23]: 0
Plant response rating, Pigweed [4, 14]: 0
Plant response rating, Pigweed [4, 24]: 0
Plant response rating, Pigweed [4, 16]: 30
Plant response rating, Wheat [6, 23]: 0
Plant response rating, Wheat [6, 14]: 60
Plant response rating, Wheat [6, 24]: 0
Plant response rating, Wheat [6, 16]: 30
Canarygrass plant response rating ([7]; 8 g ai/ha, postemergence, 0-100 scale): 65
Plant response rating, Canarygrass ([7]; 31 g ai/ha, scale 0 to 100): 90
Plant response rating, Canarygrass [7, 25]: 90
Chickweed plant response rating ([8]; 8 g ai/ha): 0
Chickweed plant response rating ([8]; 16 g ai/ha): 0
Plant response rating, Chickweed ([8]; 31 g ai/ha, scale 0 to 100): 0
Plant response rating, Chickweed [8, 25]: 0
Windgrass plant response rating ([9]; 8 g ai/ha): 90
Windgrass plant response rating ([9]; 16 g ai/ha): 98
Plant response rating, Windgrass ([9]; 31 g ai/ha, scale 0 to 100): 100
Plant response rating, Windgrass [9, 25]: 100
Barley plant response rating ([10]; 8 g ai/ha, 0-100 scale): 0
Barley plant response rating ([10]; 16 g ai/ha, 0-100 scale (0 no effect, 100 complete control)): 0
Plant response rating, Barley [10, 18]: 45
Plant response rating, Barley [10, 25]: 45
Plant response rating, Barnyardgrass [11, 20]: 0
Plant response rating, Barnyardgrass [11, 21]: 0
Plant response rating, Barnyardgrass [11, 22]: 0
Plant response rating, Barnyardgrass [11, 26]: 0
Plant response rating, Ducksalad [12, 20]: 0
Plant response rating, Ducksalad [12, 22]: 0
Plant response rating, Ducksalad [12, 26]: 0
Plant response rating, Rice (rice (Oryza sativa); [20]): 0
Plant response rating, Rice (rice (Oryza sativa); [21]): 0
Plant response rating, Rice (rice (Oryza sativa); [22]): 0
Plant response rating, Rice (rice (Oryza sativa); [26]): 0
Plant response rating, Sedge, Umbrella [13, 20]: 0
Plant response rating, Sedge, Umbrella [13, 21]: 0
Plant response rating, Sedge, Umbrella [13, 22]: 0
Plant response rating, Sedge, Umbrella [13, 26]: 0
